In the NIST ThermoML archive (doi:10.1021/je301347v) one finds electrical conductivity data, which are given here for 3 molecules.

For the series the following is noted: 101 kPa, Liquid, Voltage change across transformer (no electrode).

Molecules are shown by their SMILES. ± gives the expanded uncertainty stated by the source.

Take `CCCC[n+]1ccccc1.F[B-](F)(F)F` [1-butylpyridinium tetrafluoroborate]: the electrical conductivity runs as follows: (293.15 K) 0.181 ± 0.0036 S/m; (303.15 K) 0.321 ± 0.006 S/m; (313.15 K) 0.519 ± 0.01 S/m; (323.15 K) 0.785 ± 0.016 S/m.

As for `CCCC[n+]1ccc(C)cc1.F[B-](F)(F)F` [1-butyl-4-methylpyridinium tetrafluoroborate], the electrical conductivity runs as follows: (293.15 K) 0.1318 ± 0.0013 S/m; (303.15 K) 0.254 ± 0.003 S/m; (313.15 K) 0.439 ± 0.004 S/m; (323.15 K) 0.687 ± 0.007 S/m.

As to `CCCC[n+]1cccc(C)c1.F[B-](F)(F)F` [1-butyl-3-methylpyridinium tetrafluoroborate], the electrical conductivity reads like this: (293.15 K) 0.155 ± 0.0016 S/m; (303.15 K) 0.281 ± 0.003 S/m; (313.15 K) 0.461 ± 0.005 S/m; (323.15 K) 0.704 ± 0.007 S/m.
